Values of other authors in patent US11890293B2, “Synthetic composition for treating metabolic disorders” (GLYCOM A/S, priority 2014, dated 2024).

What was measured:
[1] = tested on: type 2 diabetes-model mice; conditions: oral doses
[2] = tested on: high-fat diet rats
[3] = tested on: high-fat diet mice

SMILES	insulin secretion [1]	fat accumulation in the liver and other organs [2]	fat accumulation in the liver and other organs [3]
CC(=O)N[C@H]1[C@H](O[C@H]2[C@@H](O)[C@@H](CO)O[C@@H](O[C@H]3[C@H](O)[C@@H](O)C(O)O[C@@H]3CO)[C@@H]2O)O[C@H](CO)[C@@H](O[C@@H]2O[C@H](CO)[C@H](O)[C@H](O)[C@H]2O)[C@@H]1O (mixture of isomers) [LNnT, lacto-N-neotetraose]	promote insulin secretion		
CC(=O)N[C@H]1[C@H]([C@H](O)[C@H](O)CO)O[C@@](O[C@H]2[C@@H](O)[C@@H](CO)O[C@@H](O[C@H]3[C@H](O)[C@@H](O)C(O)O[C@@H]3CO)[C@@H]2O)(C(=O)O)C[C@@H]1O (stereo partly shown) [3′-SL, 3′-sialyllactose]	promote insulin secretion	reduce/prevent fat accumulation in the liver and other organs	reduce/prevent fat accumulation in the liver and other organs
CC(=O)N[C@H]1[C@H]([C@H](O)[C@H](O)CO)O[C@@](OC[C@H]2O[C@@H](O[C@H]3[C@H](O)[C@@H](O)[C@H](O)O[C@@H]3CO)[C@H](O)[C@@H](O)[C@H]2O)(C(=O)O)C[C@@H]1O [6′-SL, 6′-sialyllactose]	promote insulin secretion	reduce/prevent fat accumulation in the liver and other organs	reduce/prevent fat accumulation in the liver and other organs
